{"source": "patent US8039601B1", "about": "“Crystalline forms of 1,6-Bis [3-(3-carboxymethylphenyl)-4-(2-α-D-mannopyranosyloxy)-phenyl] hexane” (Revotar Biopharmaceuticals AG, priority 2006, dated 2011)", "key": {"[1]": {"test": "Thermodynamic solubility of the polymorphic forms in water (shake flask technique, UV)", "format": "physicochemical", "conditions": "pure water, over night at 25° C., triplicate", "method": "The thermodynamic solubility of FORM 1, FORM 2, and FORM 3 of 1,6-Bis [3-(3-carboxymethylphenyl)-4-(2-α-D-mannopyranosyloxy)-phenyl] hexane (compound of formula (I)) was determined in water by employing the shake flask technique. The sample was added to pure water in a Safelock-tube (Eppendorf, Germany) under vigorous shaking until a white precipitate was formed. The saturated solution was incubated over night at 25° C. in an Eppendorf Thermomixer operated at 700 RPM. The suspension was cleared by centrifugation at 13.000 RPM at room temperature, and the supernatant was carefully collected. The supernatant was further purified by vacuum-filtration through a Millipore solubility filter plate (Millipore, Molsheim, France).\nThe UV absorption of the filtrate was measured against pure water using a Spectramax250 (Molecular Devices, Sunnyvale, Calif.) operated with Softmax Pro v. 4.8 software, using the application “Mscreen solubility quantify” in the ADME package. The sample concentration was calculated using a 5-point linear calibration line of the compound of formula (I) in acetonitrile:pure water (1:1 vol:vol). Measurements have been performed in triplicate."}, "[2]": {"test": "Thermodynamic solubility of the polymorphic forms in organic solvents (HPLC quantification)", "format": "physicochemical", "method": "The thermodynamic solubility of FORM 1, FORM 2, FORM 4, and FORM 6 of 1,6-Bis [3-(3-carboxymethylphenyl)-4-(2-α-D-mannopyranosyloxy)-phenyl] hexane (compound of formula (I)) was determined in several organic solvents by suspending sufficient compound to give a maximum final concentration. Quantification was by reverse phase HPLC with gradient solution with reference to a standard solution of FORM B of the compound of formula (I) at 0.25 mg/ml. The suspensions were equilibrated at 27° C. for 24 hours with shaking. All suspensions were filtered though a glass fibre C filter. The filtrate was then diluted by an appropriate factor in 50:50 ethanol:water apart from isopropyl myristate which was diluted in ethanol to avoid emulsion formation.\nSolubilities were calculated using the peak areas determined by the peak found at the same retention time as the principal peak in the standard injection."}, "[3]": {"conditions": "PEG 300, equilibrated at 27° C. for 24 hours with shaking"}, "[4]": {"conditions": "Triacetin, equilibrated at 27° C. for 24 hours with shaking"}, "[5]": {"conditions": "ethanol, equilibrated at 27° C. for 24 hours with shaking"}, "[6]": {"conditions": "equilibrated at 27° C. for 24 hours with shaking"}}}
{"smiles": "O=C(O)Cc1cccc(-c2cc(CCCCCCc3ccc(O[C@H]4O[C@H](CO)[C@@H](O)[C@H](O)[C@@H]4O)c(-c4cccc(CC(=O)O)c4)c3)ccc2O[C@H]2O[C@H](CO)[C@@H](O)[C@H](O)[C@@H]2O)c1", "note": "[FORM 3, 1,6-Bis [3-(3-carboxymethylphenyl)-4-(2-α-D-mannopyranosyloxy)-phenyl] hexane]", "values": [{"measurement": "Solubility in water", "setting": "[1]", "value": 0.014, "unit": "mg/mL"}]}
{"smiles": "O=C(O)Cc1cccc(-c2cc(CCCCCCc3ccc(O[C@H]4O[C@H](CO)[C@@H](O)[C@H](O)[C@@H]4O)c(-c4cccc(CC(=O)O)c4)c3)ccc2O[C@H]2O[C@H](CO)[C@@H](O)[C@H](O)[C@@H]2O)c1", "note": "[FORM 2, 1,6-Bis [3-(3-carboxymethylphenyl)-4-(2-α-D-mannopyranosyloxy)-phenyl] hexane]", "values": [{"measurement": "Solubility in PEG 300 (Polyethylene glycol 300)", "setting": "[2]; [3]", "value": 102, "unit": "mg/mL"}, {"measurement": "Solubility in Triacetin (glycerin triacetate)", "setting": "[2]; [4]", "value": 0.0083, "unit": "mg/mL"}, {"measurement": "Solubility in EtOH (Ethanol)", "setting": "[2]; [5]", "value": 4.2, "unit": "mg/mL"}, {"measurement": "Solubility in IPA (Isopropyl alcohol)", "setting": "[2]; [6]", "value": 0.52, "unit": "mg/mL"}, {"measurement": "Solubility in Propylene Glycol", "setting": "[2]; propylene glycol, equilibrated at 27° C. for 24 hours with shaking", "value": 104, "unit": "mg/mL"}, {"measurement": "Solubility in water", "setting": "[1]", "value": 0.015, "unit": "mg/mL"}]}
{"smiles": "O=C(O)Cc1cccc(-c2cc(CCCCCCc3ccc(O[C@H]4O[C@H](CO)[C@@H](O)[C@H](O)[C@@H]4O)c(-c4cccc(CC(=O)O)c4)c3)ccc2O[C@H]2O[C@H](CO)[C@@H](O)[C@H](O)[C@@H]2O)c1", "note": "[FORM 4, 1,6-Bis [3-(3-carboxymethylphenyl)-4-(2-α-D-mannopyranosyloxy)-phenyl] hexane]", "values": [{"measurement": "Solubility in PEG 300 (Polyethylene glycol 300)", "setting": "[2]; PEG 300, equilibrated at 27° C. for 24 hours with shaking, listed as 4", "value": 159, "unit": "mg/mL"}, {"measurement": "Solubility in Triacetin (glycerin triacetate)", "setting": "[2]; [4]", "value": 0.02, "unit": "mg/mL"}, {"measurement": "Solubility ranking among the FORMS in ethanol (in words)", "setting": "[2]; ethanol, compared with FORM 1, 2, 4, 6", "value": "highest solubility"}, {"measurement": "Solubility in EtOH (Ethanol)", "setting": "[2]; ethanol, equilibrated at 27° C. for 24 hours with shaking, listed as 4", "value": 48, "unit": "mg/mL"}, {"measurement": "Solubility in IPA (Isopropyl alcohol)", "setting": "[2]; equilibrated at 27° C. for 24 hours with shaking, listed as 4", "value": 1.2, "unit": "mg/mL"}, {"measurement": "Solubility in Propylene Glycol", "setting": "[2]; propylene glycol, equilibrated at 27° C. for 24 hours with shaking, listed as 4", "value": 165, "unit": "mg/mL"}]}
{"smiles": "O=C(O)Cc1cccc(-c2cc(CCCCCCc3ccc(O[C@H]4O[C@H](CO)[C@@H](O)[C@H](O)[C@@H]4O)c(-c4cccc(CC(=O)O)c4)c3)ccc2O[C@H]2O[C@H](CO)[C@@H](O)[C@H](O)[C@@H]2O)c1", "note": "[FORM 1, 1,6-Bis [3-(3-carboxymethylphenyl)-4-(2-α-D-mannopyranosyloxy)-phenyl] hexane]", "values": [{"measurement": "Solubility ranking among the FORMS in PEG 300 (in words)", "setting": "[2]; PEG 300, compared with other FORMS", "value": "highest solubility"}, {"measurement": "Solubility in PEG 300 (Polyethylene glycol 300)", "setting": "[2]; [3]", "value": 205, "unit": "mg/mL"}, {"measurement": "Solubility ranking among the FORMS in Triacetin (in words)", "setting": "[2]; Triacetin, compared with other FORMS", "value": "highest solubility"}, {"measurement": "Solubility in Triacetin (glycerin triacetate)", "setting": "[2]; [4]", "value": 0.056, "unit": "mg/mL"}, {"measurement": "Solubility in EtOH (Ethanol)", "setting": "[2]; [5]", "value": 4.2, "unit": "mg/mL"}, {"measurement": "Solubility in IPA (Isopropyl alcohol)", "setting": "[2]; [6]", "value": 3.9, "unit": "mg/mL"}, {"measurement": "solubility at 24 h", "setting": "[2]; propylene glycol, 27 °C, organic solvent or mixture, thermodynamic from solid, equilibrated at 27° C. for 24 hours with shaking", "value": 199, "unit": "mg/mL"}, {"measurement": "Solubility ranking among the FORMS in propylene glycol (in words)", "setting": "[2]; propylene glycol, compared with other FORMS", "value": "highest solubility"}, {"measurement": "solubility", "setting": "[1]; 25 °C, water, thermodynamic from solid", "value": 0.022, "unit": "mg/mL"}]}
{"smiles": "O=C(O)Cc1cccc(-c2cc(CCCCCCc3ccc(O[C@H]4O[C@H](CO)[C@@H](O)[C@H](O)[C@@H]4O)c(-c4cccc(CC(=O)O)c4)c3)ccc2O[C@H]2O[C@H](CO)[C@@H](O)[C@H](O)[C@@H]2O)c1", "note": "[FORM 6, 1,6-Bis [3-(3-carboxymethylphenyl)-4-(2-α-D-mannopyranosyloxy)-phenyl] hexane]", "values": [{"measurement": "Solubility ranking among the FORMS in IPA (in words)", "setting": "[2]; IPA, compared with FORM 1, 2, 4, 6", "value": "highest solubility"}, {"measurement": "Solubility in PEG 300 (Polyethylene glycol 300)", "setting": "[2]; PEG 300, equilibrated at 27° C. for 24 hours with shaking, listed as 6", "value": 122, "unit": "mg/mL"}, {"measurement": "Solubility in EtOH (Ethanol)", "setting": "[2]; ethanol, equilibrated at 27° C. for 24 hours with shaking, listed as 6", "value": 20, "unit": "mg/mL"}, {"measurement": "Solubility in IPA (Isopropyl alcohol)", "setting": "[2]; equilibrated at 27° C. for 24 hours with shaking, listed as 6", "value": 27, "unit": "mg/mL"}, {"measurement": "Solubility in Propylene Glycol", "setting": "[2]; propylene glycol, equilibrated at 27° C. for 24 hours with shaking, listed as 6", "value": 170, "unit": "mg/mL"}]}
